Data: patent publication US20100113484A1, “TREATING AGENT OF UROPATHY” (ASKA PHARMACEUTICAL CO., LTD., priority 2006, published 2010)

Columns and labels:
[1] = target: T1, human recombinant PDE5 protein (Homo sapiens, UniProt O76074); test: Measurement of PDE5-inhibiting activity; type: biochemical; conditions: Tables A and C; read-out: Inhibiting Activity (IC50 value) PDE5
T1 construct: made in house; host or cells: COS-1 cells, transient transfection with pcDNA 3.1 (+); supernatant of the homogenate, not purified
Protocol: PCR condition: [94° C., 2 min]×1 cycle, [(94° C., 30 sec), (65° C., 30 sec), (68° C., 3 min)]×25 cycles, [68° C., 6 min]×1 cycle
Thus obtained hsPDE5A1 fragment was given a restricted enzymatic treatment with XBaI and EcoRI, and thereafter inserted into pcDNA 3.1 (+) expression vector (Invitrogen) to let it serve as a human PDE5 expression vector.
Human PDE5 expression vector-transformed Escherichia coli was mass incubated to produce a large amount of human PDE5 expression vector, which was transiently transfected into COS-1 cells, with LIPOFECTAMINE 2000 Reagent (GIBCO). The cells were homogenized in ice-cooled buffer A and centrifuged at 4° C., 14,000×g for 10 minutes. The supernatant was isolated to provide human recombinant PDE5 protein solution.

[2] = target: T2, human recombinant PDE9 protein (Homo sapiens, UniProt O76083); test: Measurement of PDE9-inhibiting activity ([3H]-cGMP hydrolysis); type: biochemical; conditions: Tables A and C; read-out: Inhibiting Activity (IC50 value) PDE9
T2 construct: made in house; host or cells: COS-1 cells, transient transfection with pcDNA 3.1 (+); supernatant of the homogenate, not purified
T2 sequence (O76083 whole entry): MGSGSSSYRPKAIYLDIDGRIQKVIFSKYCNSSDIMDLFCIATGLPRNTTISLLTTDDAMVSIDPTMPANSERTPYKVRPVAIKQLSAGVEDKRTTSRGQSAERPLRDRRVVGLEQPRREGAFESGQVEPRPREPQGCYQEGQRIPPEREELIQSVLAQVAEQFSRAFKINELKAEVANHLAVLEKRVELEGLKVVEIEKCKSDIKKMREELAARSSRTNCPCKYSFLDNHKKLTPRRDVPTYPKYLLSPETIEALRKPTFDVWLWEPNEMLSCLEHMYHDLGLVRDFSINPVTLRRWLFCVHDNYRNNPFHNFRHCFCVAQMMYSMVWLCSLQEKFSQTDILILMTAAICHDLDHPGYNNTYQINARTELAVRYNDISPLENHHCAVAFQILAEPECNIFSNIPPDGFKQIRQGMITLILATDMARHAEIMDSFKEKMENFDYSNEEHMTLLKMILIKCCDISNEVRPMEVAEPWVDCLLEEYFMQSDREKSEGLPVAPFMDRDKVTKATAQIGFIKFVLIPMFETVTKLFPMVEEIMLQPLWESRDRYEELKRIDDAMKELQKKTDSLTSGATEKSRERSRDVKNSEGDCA
Protocol: Based on the base sequence of hsPDE9A1 registered with GenBank database (accession No.: AF048837), hsPDE9A1 fragment was amplified by polymerase chain reaction under the following conditions, using the following sequence (Amasham Pharmacia Biotech) as the primer and Human Prostate […] cDNA library (CLONTECH) as the template DNA, with Pfu Turbo DNA polymerase ([…]):
PCR condition: [95° C., 5 min]×1 cycle, [(95° C., 1 min), (58° C., 2 min), (72° C., 3 min)]×25 cycles, [72° C., 10 min]×1 cycle
Thus obtained hsPDE9A1 fragment was given a restricted enzymatic treatment with NheI and NotI, and thereafter inserted into pcDNA 3.1 (+) expression vector (Invitrogen) to let it serve as a human PDE9 expression vector.
Human PDE9 expression vector-transformed Escherichia coli was mass incubated to produce a large amount of human PDE9 expression vector, which was transiently transfected into COS-1 cells, with LIPOFECTAMINE 2000 Reagent (GIBCO). The cells were homogenized in ice-cooled buffer A (40 mmol/L Tris-HCl, pH7.5, 15 mmol/L benzamidine, 15 mmol/L 2-mercaptoethanol, 1 μg/mL Pepstatin A, 1 μg/mL Leupeptin, 5 mmol/L EDTA) and centrifuged at 4° C., 14,000×g for 10 minutes. The supernatant was isolated to provide human recombinant PDE9 protein solution.
This mixed solution was incubated at 30° C. for 30 minutes and the enzymatic reaction of PDE9 was terminated by heating the system in boiling water for 90 seconds. Returning the system to room temperature, 50 μL of Snake venom (SIGMA: 1 mg/mL) was added, followed by 10 minutes' incubation at 30° C., to convert the [^3H]-5′-GMP produced in the previous reaction to [^3H]-guanosine. […] Thereafter [^3H]-guanosine was eluted with 3 mL of 3 mol/L aqueous ammonia and its radiation activity was measured with liquid scintillation counter.
PDE9 inhibition of the tested compound can be calculated by the following formula: […]
From the percent inhibition at various concentration levels of each tested compound, its IC50 value against PDE9 can be determined.

[3] = system: partial urethra obstruction model in guinea pigs; test: Dysuria pathological model: partial urethra obstruction model, cystometry; type: in vivo, Hartley female guinea pigs; conditions: guinea pig, i.v.
Protocol: Three-four weeks old Hartley female guinea pigs (Japan SLC, Inc.) were given celiotomy under anesthesia with pentobarbital (30 mg/kg i.p.) and in their urethra to the peripheral side by 1-2 mm from the bladder neck, each a polyethylene tube of 1.4 mm in width and 2.0 mm in inner diameter was placed. After closing the wound, the guinea pigs were bred for at least 3 weeks to produce partial urethra obstruction model in guinea pigs in which occurrence of intravesical pressure rise not accompanied by micturition (uninhibited contraction) and residual urine were observed.
The model was catheterized under anesthesia with urethane (1 g/kg i.p.) at the apex of urinary bladder and right jugular vein for cystometrography and intravenous administration, respectively. The other end of the bladder catheter was connected to a pressure transducer and infusion pump via a three way stop-cock, and physiological saline was continuously infused into the bladder through the infusion pump at a rate of 0.4 mL/min to induce micturition reflex. Immediately after the micturition reflex was induced, infusion of physiological saline into the bladder was stopped. The intravesical pressure at the time the micturition reflex was induced was measured with the pressure transducer, and the obtained cystometrogram was recorded with pen recorder. The urine voided was collected with disposable type weighing dish and its weight was measured. Further the physiological saline remained in the bladder was sucked with syringe via the bladder catheter and the residual urine volume was measured. The operations of suspending the infusion of physiological saline upon induction of micturition reflex, and about 1 minute thereafter resuming the infusion of physiological saline to induce micturition reflex were repeated plural times (generally 4 times) to stabilize the micturition reflex.
After stabilizing the micturition reflex, a compound solution (prepared by dissolving the compound or methanesulfonic acid salt thereof in DMSO and diluting it with physiological saline or distilled water) or physiological saline was administered into the vein at a volume of 10 mL/kg over 4 minutes, and simultaneously the above-described micturition reflex operations were repeated until 30 minutes passed after initiation of the administration, while measuring the intravesical pressure and the volumes of micturition and residual urine. Also the frequency of uninhibited contraction occurrence during the above-described operations was recorded.

| SMILES | IC50 [1] [nM] | IC50 [2] [nM] | Frequency of occurrence of uninhibited contraction after administration ([3]; 0.3 mg/kg) [times/min] | Frequency of occurrence of uninhibited contraction volume change ([3]; 0.3 mg/kg) [times/min] | Residual urine volume after administration ([3]; 0.3 mg/kg) [mL] | Residual urine volume volume change ([3]; 0.3 mg/kg) | Frequency of occurrence of uninhibited contraction after administration ([3]; 3 mg/kg) [times/min] | Frequency of occurrence of uninhibited contraction volume change ([3]; 3 mg/kg) [times/min] | Residual urine volume after administration ([3]; 3 mg/kg) [mL] | Residual urine volume volume change ([3]; 3 mg/kg) | Frequency of occurrence of uninhibited contraction after administration ([3]; 10 mg/kg) [times/min] | Frequency of occurrence of uninhibited contraction volume change ([3]; 10 mg/kg) [times/min] | Residual urine volume after administration ([3]; 10 mg/kg) [mL] | Residual urine volume volume change ([3]; 10 mg/kg) [mL] | Frequency of occurrence of uninhibited contraction after administration ([3]; 1 mg/kg) [times/min] | Frequency of occurrence of uninhibited contraction volume change ([3]; 1 mg/kg) [times/min] | Residual urine volume after administration ([3]; 1 mg/kg) [mL] | Residual urine volume volume change ([3]; 1 mg/kg) |
| --- | --- | --- | --- | --- | --- | --- | --- | --- | --- | --- | --- | --- | --- | --- | --- | --- | --- | --- |
| Cc1c(C(=O)O)sc2nc(Cc3cccc(Cl)c3)[nH]c(=O)c12 [A-4, 2-(3-Chlorobenzyl)-5-methyl-4-oxo-3,4-dihydrothieno[2,3-d]-pyrimidine-6-carboxylic acid] | 6770 | 30 | 0.80 | −0.36 | 1.08 | +0.13 mL | 0.49 | −0.67 | 1.11 | +0.16 mL | 0.60 | −0.56 | 0.95 | 0.00 | – | – | – | – |
| Cc1c(C(=O)O)sc2nc(Cc3ccc(Cl)c(Cl)c3)[nH]c(=O)c12 [A-7, 2-(3,4-Dichlorobenzyl)-5-methyl-4-oxo-3,4-dihydrothieno-[2,3-d]pyrimidine-6-carboxylic acid] | 915 | 38 | – | – | – | – | 0.77 | −0.39 | 1.03 | -0.30 mL | 0.64 | −0.47 | 0.64 | -0.42 | 0.79 | −0.17 | 0.86 | +0.04 mL |
| O=C(O)c1cc2c(=O)[nH]c(CC3=CCCC3)nc2s1 [A-21, 2-(Cyclopent-1-enylmethyl)-4-oxo-3,4-dihydrothieno[2,3-d]-pyrimidine-6-carboxylic acid] | 12100 | 22 | 0.55 | −0.53 | 1.02 | -0.52 mL | 0.78 | −0.66 | 0.88 | -0.49 mL | 0.83 | −0.74 | 0.62 | -1.06 | – | – | – | – |
| Cc1c(C(=O)O)sc2nc(Cc3cccc(Cl)c3)[nH]c(=S)c12 [A-26, 2-(3-Chlorobenzyl)-5-methyl-4-thioxo-3,4-dihydrothieno-[2,3-d]pyrimidine-6-carboxylic acid] | 1110 | 5 | 1.02 | −0.10 | 0.91 | -0.11 mL | 0.76 | −0.36 | 0.27 | -0.75 mL | 0.59 | −0.53 | 0.48 | -0.54 | – | – | – | – |
